# From article PMC6175411, “Reversible optical control of F1Fo‐ATP synthase using photoswitchable inhibitors” (Febs Letters, 2018)
# Target: T1, Yarrowia lipolytica F1Fo-ATP synthase (YF1Fo), monomeric (Yarrowia lipolytica, UniProt Q6C326+Q6C338+Q6CFT7)
# T1 construct: gene ATP1; complete, genetically unmodified native F1Fo holoenzyme, monomeric form, solubilised in DDM from Y. lipolytica mitochondria; PEG precipitation, glycerol gradient, anion exchange; remaining Fo and peripheral stalk subunits also present; with ATP synthase subunit delta, mitochondrial; ATP synthase subunit epsilon, mitochondrial; ATP synthase subunit 9, mitochondrial (subunit c); ATP synthase subunit a
# Assay: malachite green ATP hydrolysis assay
# Format: biochemical
# T1 sequence (Q6C326 25-536): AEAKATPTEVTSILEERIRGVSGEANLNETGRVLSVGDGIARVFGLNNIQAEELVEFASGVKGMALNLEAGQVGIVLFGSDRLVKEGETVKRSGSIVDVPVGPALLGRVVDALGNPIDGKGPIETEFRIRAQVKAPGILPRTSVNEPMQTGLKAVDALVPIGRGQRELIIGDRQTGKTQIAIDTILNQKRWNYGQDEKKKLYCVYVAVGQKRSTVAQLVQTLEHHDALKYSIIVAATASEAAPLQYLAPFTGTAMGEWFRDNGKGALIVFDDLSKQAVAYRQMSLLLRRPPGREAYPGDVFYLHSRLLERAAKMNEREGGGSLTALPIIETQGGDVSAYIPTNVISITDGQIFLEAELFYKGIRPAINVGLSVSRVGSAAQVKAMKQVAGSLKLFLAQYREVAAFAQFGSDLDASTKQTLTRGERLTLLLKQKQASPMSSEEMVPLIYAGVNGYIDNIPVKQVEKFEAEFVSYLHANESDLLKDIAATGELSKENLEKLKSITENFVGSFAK
# T1 sequence (Q6CFT7 33-509): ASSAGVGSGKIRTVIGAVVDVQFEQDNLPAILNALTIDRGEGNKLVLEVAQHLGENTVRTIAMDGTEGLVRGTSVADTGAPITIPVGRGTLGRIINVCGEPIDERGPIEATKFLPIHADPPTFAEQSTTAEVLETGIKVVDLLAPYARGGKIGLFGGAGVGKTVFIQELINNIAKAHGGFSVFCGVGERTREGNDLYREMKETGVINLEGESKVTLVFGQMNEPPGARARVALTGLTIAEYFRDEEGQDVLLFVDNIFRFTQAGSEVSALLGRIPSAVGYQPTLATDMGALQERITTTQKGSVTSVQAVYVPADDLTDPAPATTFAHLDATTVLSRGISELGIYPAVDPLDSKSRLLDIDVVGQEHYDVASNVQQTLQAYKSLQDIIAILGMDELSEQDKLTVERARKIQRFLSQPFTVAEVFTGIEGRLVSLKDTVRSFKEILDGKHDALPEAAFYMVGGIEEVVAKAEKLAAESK
# T1 sequence (Q6C338 22-293): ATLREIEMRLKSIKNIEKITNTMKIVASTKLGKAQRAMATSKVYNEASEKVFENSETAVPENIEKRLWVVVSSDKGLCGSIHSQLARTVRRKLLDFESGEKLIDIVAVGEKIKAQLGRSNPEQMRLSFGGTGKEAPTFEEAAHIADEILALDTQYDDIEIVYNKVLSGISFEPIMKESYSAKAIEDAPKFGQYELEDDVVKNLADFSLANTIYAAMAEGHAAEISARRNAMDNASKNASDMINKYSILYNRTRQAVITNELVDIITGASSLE
# T1 sequence (Q6C877 25-162 partner): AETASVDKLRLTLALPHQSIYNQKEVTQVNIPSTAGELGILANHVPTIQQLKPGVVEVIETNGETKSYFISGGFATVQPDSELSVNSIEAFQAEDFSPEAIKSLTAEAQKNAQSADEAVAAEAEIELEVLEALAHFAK
# T1 sequence (Q37695 whole entry partner): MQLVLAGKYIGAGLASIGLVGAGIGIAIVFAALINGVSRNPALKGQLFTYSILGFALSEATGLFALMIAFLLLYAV
row,IC50,Compound
1,140 ± 56.6 µM,"Oc1ccc(/N=N/c2cc(O)cc(O)c2)cc1 [PIAS-1, 5‐((4‐hydroxyphenyl)diazenyl)benzene‐1,3‐diol]"
2,185 ± 17.7 µM,Oc1ccc(/C=C/c2cc(O)cc(O)c2)cc1 [resveratrol]
3,> 200 µM,"COc1cc(/N=N/c2ccc(O)cc2)cc(OC)c1 [PIAS-2, 4‐((3,5‐dimethoxyphenyl)diazenyl)phenol]"
4,14 ± 2.7 µM,"Oc1cc(O)cc(/N=N/c2ccc(O)c(O)c2)c1 [PIAS-4, 4‐((3,5‐dihydroxyphenyl)diazenyl)benzene‐1,2‐diol]"
5,> 200 µM,"COc1cc(/N=N/c2ccc(O)c(OC)c2)cc(OC)c1 [PIAS-3, 4‐((3,5‐dimethoxyphenyl)diazenyl)‐2‐methoxyphenol]"
